According to PubChem BioAssay (NCI):
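Five concentrations, 48 hours, 96-well plates. TGI: total growth inhibition.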

How the values were obtained:
Assay in all cases: NCI-60 cell line screen, 48 h
SF-539 CNS = test system: SF-539 CNS
OVCAR-3 ovarian = test system: OVCAR-3 ovarian
SW-620 colon = test system: SW-620 colon
DU-145 prostate = test system: DU-145 prostate
HOP-92 NSCLC = test system: HOP-92 NSCLC
HOP-62 NSCLC = test system: HOP-62 NSCLC
MDA-MB-435 = test system: MDA-MB-435
HCT-116 colon = test system: HCT-116 colon
T-47D breast = test system: T-47D breast
NCI-H522 lung = test system: NCI-H522 lung
OVCAR-5 ovarian = test system: OVCAR-5 ovarian
MOLT-4 leukemia = test system: MOLT-4 leukemia
COLO 205 colon = test system: COLO 205 colon
EKVX NSCLC = test system: EKVX NSCLC
A498 renal = test system: A498 renal
OVCAR-4 ovarian = test system: OVCAR-4 ovarian
SK-MEL-28 melanoma = test system: SK-MEL-28 melanoma
RXF 393 renal = test system: RXF 393 renal
U251 CNS = test system: U251 CNS
IGROV1 ovarian = test system: IGROV1 ovarian

Compound	TGI (SF-539 CNS) [µM]	TGI (OVCAR-3 ovarian) [µM]	TGI (SW-620 colon) [µM]	TGI (DU-145 prostate) [µM]	TGI (HOP-92 NSCLC) [µM]	TGI (HOP-62 NSCLC) [µM]	TGI (MDA-MB-435) [µM]	TGI (HCT-116 colon) [µM]	TGI (T-47D breast) [µM]	TGI (NCI-H522 lung) [µM]	TGI (OVCAR-5 ovarian) [µM]	TGI (MOLT-4 leukemia) [µM]	TGI (COLO 205 colon) [µM]	TGI (EKVX NSCLC) [µM]	TGI (A498 renal) [µM]	TGI (OVCAR-4 ovarian) [µM]	TGI (SK-MEL-28 melanoma) [µM]	TGI (RXF 393 renal) [µM]	TGI (U251 CNS) [µM]	TGI (IGROV1 ovarian) [µM]
Cc1n[nH]c(=O)n1/N=C/c1ccc(F)cc1	> 100	> 100	> 100	> 100	> 100	> 100	> 100	> 100	> 100	> 100	> 100	> 100	> 100	> 100	> 100	> 100	> 100	> 100	–	–
CCCC[C@H]1[C@@H](OCOc2ccccc2)COC(=O)N1[C@H](C)c1ccccc1	–	27.8	> 100	53.3	54	29.8	38.5	20.8	> 40.4	29.2	43.6	> 60.4	> 100	85.2	29.4	43.9	71.1	47.6	42.3	> 61.8
CC(NO)/C(=N/O)c1ccco1 (stereo not drawn)	–	> 10	> 10	> 10	> 10	> 10	> 10	> 10	> 10	> 10	> 10	> 10	> 10	> 10	–	> 10	–	> 10	> 10	–
Nc1nc2c(c(=O)[nH]1)C(c1ccccc1)CC(=O)N2 (stereo not drawn)	> 100	> 100	> 100	> 100	–	> 100	> 100	> 100	> 100	–	> 100	> 100	> 100	> 100	> 100	> 100	> 100	–	> 100	> 100
CCCCCCCCCCCCN1[C@H]2CCC[C@H]2C(O)[C@@H]2CCC[C@@H]21 (stereo partly drawn)	–	> 100	> 100	> 100	> 100	> 100	> 100	> 100	88.2	–	> 100	> 100	> 100	–	> 100	> 100	> 100	> 100	> 100	> 100
COc1ccc(S(=O)(=O)NC(CCC(=O)NN)C(=O)NN)cc1 (stereo not drawn)	> 100	> 100	> 100	> 100	> 100	> 100	> 100	> 100	> 100	> 100	> 100	> 100	> 100	> 100	> 100	> 100	> 100	–	> 100	> 100
COc1cc2nc(-c3cccs3)nc(N3CCN(c4ccccc4C(F)(F)F)CC3)c2cc1OC	> 100	> 100	> 100	> 100	> 100	> 100	> 100	> 100	> 100	> 100	> 100	> 100	> 100	> 100	> 100	> 100	> 100	–	> 100	> 100
c1ccc(N=C(Nc2ccccc2)N2CCCC2)cc1	–	> 100	> 100	> 100	> 100	> 100	> 100	> 100	> 100	> 100	> 100	> 100	> 100	> 100	–	> 100	> 100	–	> 100	> 100
O=[N+]([O-])c1ccc(N=Nc2c(O)ccc3ccccc23)c([N+](=O)[O-])c1	–	> 100	> 100	> 100	> 100	> 100	> 100	> 100	> 100	> 100	> 100	> 100	> 100	> 100	> 100	> 100	> 100	> 100	> 100	> 100
COc1ccc2nccc(SCC(=O)O)c2c1	–	> 100	> 100	> 100	> 100	> 100	> 100	> 100	> 100	> 100	> 100	> 100	–	> 100	> 100	> 100	> 100	> 100	> 100	> 100
CCN(CC)c1ccc2cc(C(N)=S)c(=N)oc2c1	> 100	–	> 100	> 100	> 100	> 100	> 100	> 100	> 100	> 100	> 100	> 100	> 100	> 100	–	> 100	> 100	> 100	> 100	> 100
O=C(Nc1ccccc1)c1cc2ccccc2c(N=Nc2ccc([N+](=O)[O-])cc2)c1O	–	> 100	> 100	> 100	> 100	> 100	> 100	> 100	> 100	> 100	> 100	> 100	> 100	> 100	–	> 100	> 100	> 100	> 100	> 100
N#Cc1c(=O)c2ccccc2n2c1[nH]c1ccccc12	> 100	> 100	> 100	> 100	–	> 100	> 100	> 100	79.7	–	> 100	> 100	> 100	> 100	> 100	> 100	> 100	> 100	> 100	> 100
O=C1/C(=C/c2ccc(OC(=O)c3ccccc3)cc2)CCC/C1=C\c1ccc(OC(=O)c2ccccc2)cc1	> 100	> 100	> 100	> 100	> 100	> 100	> 100	> 100	> 100	> 100	> 100	> 100	> 100	> 100	–	> 100	> 100	–	> 100	> 100
C/C(=N\n1c(Cc2ccccc2)n[nH]c1=O)c1ccccc1	> 100	–	> 100	> 100	> 100	–	> 100	> 100	> 100	> 100	> 100	> 100	> 100	> 100	> 100	> 100	> 100	> 100	> 100	> 100
Cc1cc(C)c(S(=O)(=O)N2CCCN(S(=O)(=O)c3c(C)cc(C)cc3C)OCCCO2)c(C)c1	–	> 100	> 100	> 100	> 100	> 100	> 100	> 100	> 100	> 100	> 100	> 100	> 100	> 100	> 100	> 100	> 100	> 100	> 100	> 100
COC(=O)c1ccccc1C1CN=NC12Cc1ccccc1C2=O (stereo not drawn)	> 100	> 100	> 100	> 100	> 100	> 100	> 100	> 100	> 100	> 100	> 100	> 100	> 100	> 100	–	> 100	> 100	> 100	> 100	> 100
COc1cc(C2SCC(=O)N2c2ccc(-n3c(-c4ccccc4)nc4ccccc4c3=O)cc2)cc(OC)c1OC (stereo not drawn)	> 100	> 100	> 100	> 100	84.2	> 100	> 100	> 100	> 100	> 100	> 100	> 100	> 100	> 100	> 100	> 100	> 100	–	> 100	> 100
N#CC1C(=O)SC2c3ccccc3C(=O)c3ccccc3C12 (stereo not drawn)	> 10	> 10	> 10	> 10	–	> 10	> 10	> 10	> 10	–	> 10	> 10	> 10	> 10	> 10	> 10	> 10	> 10	> 10	> 10
Cc1c(CCN2CCOCC2)c(N2CCOCC2)n2c(nc3ccccc32)c1C#N	> 10	> 10	> 10	> 10	> 10	> 10	> 10	> 10	> 10	–	> 10	> 10	> 10	> 10	> 10	> 10	> 10	> 10	> 10	> 10
Cc1cc(C)nc(NS(=O)(=O)c2ccc(NNc3c4ccccc4nc4c(C(=O)Nc5ccc(S(N)(=O)=O)cc5)cccc34)cc2)n1	> 100	> 100	> 100	> 100	> 100	> 100	> 100	> 100	> 100	85.8	> 100	> 100	> 100	> 100	–	> 100	92.3	> 100	70.3	> 100
Oc1c(Cl)c(Cl)c(O)c(CCNc2ccc3ncccc3c2)c1Cl	39.4	35	95.6	60	> 100	27.7	18.8	41.9	> 100	4.29	40.4	> 100	89.2	36	–	> 100	54.6	37.7	36.8	21
NC(N)=NS(=O)(=O)c1ccc(NNc2c3ccccc3nc3c(C(=O)Nc4ccc(S(=O)(=O)N=C(N)N)cc4)cccc23)cc1	> 100	> 100	> 100	> 100	> 100	> 100	> 100	> 100	> 100	67.1	> 100	80.4	> 100	95.8	–	> 100	89.6	> 100	> 100	> 100
N#CC(C#N)=C/C=C(\Sc1c(Cl)c(Cl)nc(Cl)c1Cl)c1ccc(Cl)cc1	41.8	27.3	25.9	47.5	> 100	96.6	20.3	34.8	> 100	56.5	44.6	> 100	55.4	> 100	–	> 100	49.7	40	33.3	53.6
COC(=O)c1ccc(NC(=O)O/N=C(\Cl)C(C)C)cc1	–	4.17	3.77	35.1	3.57	32.9	25.5	17.2	5.02	1.74	32.8	6	3.72	10.9	37.6	32	10.1	19.6	30.9	27.6
